These results are taken from patent US20040192720A1, “Novel heteroaryl alkylamide derivatives useful as bradykinin receptor modulators” (priority 2003, published 2004).

Experiment [1] concerns the target T1, human B2 bradykinin receptors (Homo sapiens, UniProt P30411).
T1 construct: purchased Receptor Biology, Inc. (Baltimore, Md.); host or cells: CHO-K1 cells transfected with human B2 receptor (membranes)
T1 sequence (P30411 1-391): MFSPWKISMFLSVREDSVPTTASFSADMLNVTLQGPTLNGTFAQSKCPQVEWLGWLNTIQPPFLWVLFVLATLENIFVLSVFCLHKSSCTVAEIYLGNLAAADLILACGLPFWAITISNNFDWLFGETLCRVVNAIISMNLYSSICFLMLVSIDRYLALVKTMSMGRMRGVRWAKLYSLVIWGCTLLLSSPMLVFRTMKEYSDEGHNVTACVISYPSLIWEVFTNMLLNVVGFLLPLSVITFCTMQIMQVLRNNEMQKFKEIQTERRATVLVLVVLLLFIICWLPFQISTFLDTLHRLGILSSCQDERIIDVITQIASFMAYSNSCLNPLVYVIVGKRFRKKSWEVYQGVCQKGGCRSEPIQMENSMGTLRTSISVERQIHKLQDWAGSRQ
The experiment can be described thus: Bradykinin B2 (BK2) Receptor Binding Assay. The settings on record: CHO-K1 membranes transfected with human B2 receptor, ~0.25 nM [3H]NPC17731, 60 min 25° C. The protocol: Bradykinin B2 (BK2) Receptor Binding Assay
Cell membranes of CHO-K1 cells transfected with human B2 bradykinin receptors (CH)-hB2) were purchased from Receptor Biology, Inc. (Baltimore, Md.). 5.54 mg/mL of membrane protein suspended in 10 mM TRIS-HC pH 7.2, 2 mM EDTA, 10% sucrose.
Incubation for 60 min at 25° C. was performed in a total volume of 1 mL and contained, unless stated differently, 50 mM HEPES, pH 7.2, 5 mM MgCl2, 0.02 mg/mL 1.10-phenathroline (Sigma, P-9375), 0.25 mg/mL pefebloc SC (Boerhringer, 1429876), 30 μg/mL membrane protein and ˜0.25 nM [^3HNPC17731 (NEN, Boston). Samples were harvested on a Brandel Cell Harvester on to Wallac filtermat B sheets (96 sample format), and washed three times with 2 mL cold HEPES-buffer (10 mM, pH 7.5), and dried in a microwave oven. To each sample area 2×40 μL of Betaplate Scint scintillation fluid (LKB) was added and the radioactivity quantified on a LKB (Wallac) 1205 BetaPlate liquid scintillation counter.
The data were used to calculate either the % inhibition compared to control binding (when only a single concentration of test compound was evaluated) or a Ki value (when a range of concentrations were tested). Background was subtracted from mean cpm values and % inhibition was calculated as: [(total dpm-tpst compound dpm)/(total dpm-nonspecific dpm)]×100. Kd and Ki values were calculated using GraphPad PRISM data analysis program.

Experiment [2] concerns the target T2, human B2 bradykinin receptors (CHO-hB2 cell membranes) (Homo sapiens, UniProt P30411).
T2 construct: purchased Receptor Biology, Inc. (Baltimore, Md.); host or cells: CHO-hB2 cells (membranes)
T2 sequence (P30411 1-391): T1 sequence (P30411 1-391)
The experiment can be described thus: [35S]GTPγS Binding Assay in CHO-hB2 Cell Membranes. The following applies: bradykinin-stimulated [35S]GTPγS binding; for Functional Activity (% Basal): number in parentheses, concentration not given. In kind it is biochemical. The procedure: [^35S]GTPγS Binding Assay in CHO-hB2Cell Membranes
CHO-hB2 cell membranes were purchased from Receptor Biology, Inc. (Baltimore, Md.). 10 mg/mL of membrane protein was suspended in 10 mM TRIS-HC pH 7.2, 2 mM EDTA, 10% sucrose.
Membranes were added into 15 mL ice cold binding assay buffer. The assay buffer contained 50 mM HEPES, pH 7.6, 5 mM MgCl2, 100 mM NaCl, 1 mM DTT and 1 mM EDTA. The membrane suspension was homogenized twice with a Polytron and centrifuged at 3000 rpm for 10 min. The supernatant was then centrifuged at 18,000 rpm for 20 min. The pellet was saved in a tube and resuspended.
The pellet membranes (40 μg/mL) were preincubated with SPA (scintillation proximity assay) beads (20 mg/mL) at 25 C. ° for 45 min in the assay buffer. The SPA beads (5 mg/mL) coupled with membranes (10 μg/mL) were then incubated with 0.5 nM [^35S]GTPγS in the same HEPES buffer containing 50 μM GDP in total volume of 200 μL. Bradykinin was used to stimulate [^35S]GTPγS binding. Varying concentrations of drugs were incubated with bradykinin to inhibit bradykinin-stimulated [^35S]GTPγS binding. The basal binding was tested in the absence of bradykinin and no specific binding was tested in the present 10 μM unlabeled GTPγS. The radioactivity was quantified on a Packard Top Count, and calculated.
% of Basal=(stimulated binding−non specific binding)/(basal binding−non specific binding)×100.
In general terms: Binding of GTPγS marks nucleotide exchange on a G protein.

For experiment [3], the system named is kaolin-induced abdominal irritant response. The experiment can be described thus: Graded Abdominal Irritant Test (GrAIT). In kind it is in vivo. The settings on record: po; for % Inhibition: 30 minutes before kaolin 100 mg/kg i.p., dose not given; for ED50: read-out: ED50 (μmol/Kg, p.o.). The protocol:
Graded Abdominal Irritant Test The […] Abdominal Irritant Test (GrAIT) is a modification of the methods described by Koster et al. (Koster R., Anderson M and DeBeer E. J. Fed. Proc. 1959, 18, 412). Prior to the test (30 minutes for oral or subcutaneous administration), each animal was administered a known analgesic, a test compound, or vehicle (0.05N HCl) by one of two routes (oral or subcutaneous). Kaolin (100 mg/kg) was injected intraperitoneally (using a standard 23G needle) at a volume of 10 mL/kg of body weight. Following the administration of the chemical agent, the animals were placed in glass bell jars (approximately 15 cm in diameter with wood chips on the bottom). […] A contraction of the abdominal musculature and an elongation of the body, which extends through to the hindlimbs, characterize this response. The responses were counted during the 15-minute period after the injection of the kaolin. A mechanical counter or a personal computer was used to collect the number of counts per animal, and animals were observed no more than 5 at a time. The mean number of counts (±SEM) for a group of animals receiving a known analgesic or test compound was compared to the mean for the group of animals which received only vehicle pretreatment (Control group). For each dose, % inhibition of the response was calculated. For each test compound, the ED50 value was calculated using a log dose regression analysis program (PharmTools software).

As a reminder, the Ki is the dissociation constant of the complex between target and ligand, obtained from inhibition or displacement. Read a low Ki as tighter binding. For the compound `Cc1ccc2cccc(OCc3c(Cl)ccc(NC(=O)Cc4ccc(C(=O)c5ccc(C#N)nc5)n4C)c3Cl)c2n1` [Compound 14], the Ki in experiment [1] was found to be 6.76 µM.
The compound `Cc1ccc2cccc(OCc3c(Cl)ccc(NC(=O)Cc4ccc(C(=O)c5ccc(C#N)cc5)n4C)c3Cl)c2n1` [Compound 15] showed a Ki in experiment [1] of 6.17 µM. In addition, the “Functional Activity (word result)” value in experiment [2] is listed as “Weak antagonist”.
For orientation: % Inhibition means the relative decrease from the control value, in per cent. On to `Cc1ccc2cccc(OCc3c(C)ccc(N(C)C(=O)Cc4ccc(C(=O)c5cnccc5Cl)n4C)c3C)c2n1` [Compound 77, 2-[5-(4-Chloro-pyridine-3-carbonyl)-1-methyl-1H-pyrrol-2-yl]-N-[2,4-dimethyl-3-(2-methyl-quinolin-8-yloxymethyl)-phenyl]-N-methyl-acetamide], for which, in experiment [2], the “Functional Activity (word result)” value is given as “Antagonist” and the “Functional Activity (% Basal)” value is recorded as 62 % Basal. Moreover, in experiment [3], the “% Inhibition” value stood at 70% and the ED50 came out at 80.9 µmol/kg.
In the case of `Cc1ccc2cccc(OCc3c(C)ccc(N(C)C(=O)Cc4ccc(C(=O)c5cnccc5C#N)n4C)c3C)c2n1` [Compound 78, 2-[5-(4-Cyano-pyridine-3-carbonyl)-1-methyl-1H-pyrrol-2-yl]-N-[2,4-dimethyl-3-(2-methyl-quinolin-8-yloxymethyl)-phenyl]-N-methyl-acetamide], in experiment [2], the “Functional Activity (word result)” value was “Antagonist” and the “Functional Activity (% Basal)” value amounted to 83 % Basal. In experiment [3], the “% Inhibition” value is listed as 82% and the ED50 is 114 µmol/kg.
`Cc1ccc2cccc(OCc3c(C)ccc(N(C)C(=O)CCc4ccc(C(=O)c5cccs5)n4C)c3C)c2n1` [Compound 80]: the “Functional Activity (word result)” value in experiment [2] is given as “Weak antagonist”.
In the case of `Cc1ccc2cccc(OCc3c(C)ccc(N(C)C(=O)CCc4ccc(C(=O)c5ccncc5)n4C)c3C)c2n1` [Compound 82], in experiment [2], the “Functional Activity (word result)” value is recorded as “Antagonist” and the “Functional Activity (% Basal)” value is given as 50 % Basal.
Turning to `Cc1ccc2cccc(OCc3c(C)ccc(N(C)C(=O)CCc4ccc(C(=O)c5cccnc5)n4C)c3C)c2n1` [Compound 84], the “Functional Activity (word result)” value in experiment [2] is “Antagonist”.
For `Cc1ccc2cccc(OCc3c(C)ccc(N(C)C(=O)CCc4ccc(C(=O)c5ccc(Cl)nc5)n4C)c3C)c2n1` [Compound 88], the “Functional Activity (word result)” value in experiment [2] was “Antagonist”.
With `Cc1ccc2cccc(OCc3c(Cl)ccc(N(C)C(=O)CCc4ccc(C(=O)c5cnccc5Cl)n4C)c3Cl)c2n1` [Compound 89, 3-[5-(4-Chloro-pyridine-3-carbonyl)-1-methyl-1H-pyrrol-2-yl]-N-[2,4-dichloro-3-(2-methyl-quinolin-8-yloxymethyl)-phenyl]-N-methyl-propionamide], in experiment [2], the “Functional Activity (word result)” value is recorded as “Antagonist” and the “Functional Activity (% Basal)” value was 51 % Basal. Besides, in experiment [3], the “% Inhibition” value is given as 98% and the ED50 is 22.5 µmol/kg.
Consider `Cc1ccc2cccc(OCc3c(C)ccc(N(C)C(=O)CCc4ccc(C(=O)c5ccc(C#N)cc5)n4C)c3C)c2n1` [Compound 90], for which, in experiment [2], the “Functional Activity (word result)” value is listed as “Antagonist” and the “Functional Activity (% Basal)” value is 50 % Basal.
In experiment [1], `Cc1ccc2cccc(OCc3c(C)ccc(N(C)C(=O)Cc4ccc(C(=O)c5ccccc5)s4)c3C)c2n1` [Compound 108, 2-(5-Benzoyl-thiophen-2-yl)-N-[2,4-dimethyl-3-(2-methyl-quinolin-8-yloxymethyl)-phenyl]-N-methyl-acetamide] registered a Ki of 0.09 µM.
Take `CC(=O)Nc1ccc(C=CC(=O)NC[C@H]2CCCN2c2ccc(C)c(COc3cccc4ccc(C)nc34)c2C)cn1` [Compound 112, 3-(6-Acetylamino-pyridin-3-yl)-N-{1-[2,4-dimethyl-3-(2-methyl-quinolin-8-yloxymethyl)-phenyl]-pyrrolidin-2-(R)-ylmethyl}-acrylamide.]: in experiment [2], the “Functional Activity (word result)” value is “Antagonist” and the “Functional Activity (% Basal)” value is reported as 59 % Basal.
For the compound `Cc1ccc2cccc(OCc3c(C)ccc(N4CCC[C@H]4CNC(=O)Cc4ccc(C(=O)c5ccc(C#N)cc5)n4C)c3C)c2n1` [Compound 113], the Ki in experiment [1] was determined as 7.9 µM.
`Cc1ccc2cccc(OCc3c(C)ccc(N4CCC[C@H]4CNC(=O)CCc4ccc(C(=O)c5ccc(C#N)cc5)n4C)c3C)c2n1` [Compound 114] showed a Ki in experiment [1] of 0.545 µM.
For `Cc1ccc2cccc(OCc3c(Cl)cc(Cl)c(N(C)C(=O)Cc4ccc(C(=O)c5ccc(Cl)nc5)n4C)c3Cl)c2n1` [Compound 117, 2-[5-(6-Chloro-pyridine-3-carbonyl)-1-methyl-1H-pyrrol-2-yl]-N-methyl-N-[2,4,6-trichloro-3-(2-methyl-quinolin-8-yloxymethyl)-phenyl]-acetamide], in experiment [2], the “Functional Activity (word result)” value was “Antagonist”.
Consider “N-[2,4-Dimethyl-3-(2-methyl-quinolin-8-yloxymethyl)-phenyl]-3-[5-(4-methoxy-benzoyl)-1-methyl-1H-pyrrol-2-yl]-N-methyl-propionamide [Compound 106]”, for which the Ki in experiment [1] stood at 0.375 µM.
